Experimental data reported in PMC5344539, “Nematode neuropeptides as transgenic nematicides” (PLoS Pathogens, 2017).
“Also recorded” adds a separate entry of the source.

Assays:
M. incognita J2s [1] = experiment: Chemosensory (chemotaxis) assay of uNLP pre-treated J2s towards tomato root exudate; format: in vivo, Meloidogyne incognita; details: for CI score: Fig 1A, J2s incubated in 100 μM uNLP for 24 h, tomato cv. Moneymaker root exudate vs water agar plugs, counted after 3 h, mean of 10 replicates of 100 J2s, control 0.4426; for effect on chemosensation (in words): 100 μM uNLP, 24 h, relative to controls
Method: (§1) Predicted uNLPs from both M. incognita and G. pallida were synthesised by EZBiolab and dissolved into pH adjusted ddH2O to make a 5 mM stock which was aliquoted and stored at -20°C. J2s of both M. incognita and G. pallida were incubated for 24 hours in 200 μl of each peptide in a 24 well plate (SPL Lifesciences, South Korea) at a defined concentration.
(§2) A 60 mm Petri dish was divided into two segments, a positive and a negative side, with a 0.5 cm 'dead zone' either side of the centre point. The petri dish was filled with 15 ml of 0.25% w/v agar which was allowed to solidify. 3 ml of 0.25% w/v agar slurry in spring water (pH 7, agitated with a magnetic stirrer for several hours to give a smooth consistency) was added to the petri dish and spread evenly over the surface. Root diffusate (attractant) and water only (control) 0.25% agar plugs were embedded in the agar slurry, either side of the assay arena. Root diffusate was collected from 10 tomato plants, aged 3–6 weeks in 1 litre pots, by pouring 500 ml of ddH20 through the soil three times. Diffusate from each plant was combined, filter sterilised and stored at 4°C for a maximum of 1 month. Root diffusate agar plugs were made by melting 1.25% agar in ddH20, cooling to 50°C before mixing with 4 parts of root diffusate. The agar was then allowed to solidify at room temperature. 100 uNLP pre-treated M. incognita or G. pallida J2s were added by pipette to the centre of the plate. J2s which moved out of the 'dead zone' after 3 hours were counted and their location (+/-) scored. The distribution of J2s were used to create a chemotaxis index for each plate, which formed one replicate, a total of 10 replicates where completed for each uNLP treatment.

M. incognita J2s [2] = experiment: Serotonin-induced stylet thrusting assay; format: in vivo, Meloidogyne incognita; details: for % Thrusting: Fig 1C, J2s incubated in 100 μM uNLP for 24 h, stylet thrusts in 5 mM serotonin, counted 1 min, normalised to control = 100%, mean, at least 30 J2s; for effect on serotonergic-induced stylet thrusting (in words): 100 μM uNLP, 24 h, 5 mM serotonin, relative to controls
Method: as §1
(§3) Stylet thrusting assays where performed by incubating 100 M. incognita or G. pallida J2s for 15 minute in 5 mM or 2 mM serotonin (Sigma Aldrich, USA), respectively. J2s were placed on a glass slide and stylet thrusts were counted for randomly selected J2s, for 1 minute each. Counts for a given cohort of J2s were taken in a maximum interval of 15 minutes. Longer counting intervals, making for longer serotonin incubations, yielded inconsistent results. At least 30 J2s were counted for each neuropeptide treatment.

G. pallida J2s [3] = experiment: Chemosensory (chemotaxis) assay of uNLP pre-treated J2s towards tomato root exudate; format: in vivo, Globodera pallida; details: for CI score: Fig 2A, J2s incubated in 100 μM uNLP for 24 h, tomato cv. Moneymaker root exudate vs water agar plugs, counted after 3 h, mean of 10 replicates of 100 J2s, control 0.4154; for effect on chemosensation (in words): 100 μM uNLP, 24 h, relative to controls
Method: as §1, §2

G. pallida J2s [4] = experiment: Serotonin-induced stylet thrusting assay; format: in vivo, Globodera pallida; details: for effect on serotonergic-induced stylet thrusting (in words): 100 μM uNLP, 24 h, 2 mM serotonin, relative to controls; for % Thrusting: Fig 2C, J2s incubated in 100 μM uNLP for 24 h, stylet thrusts in 2 mM serotonin, counted 1 min, normalised to control = 100%, mean, at least 30 J2s
Method: as §1, §3

M. incognita J2s [5] = experiment: Tomato invasion assay with uNLP pre-treated J2s; format: in vivo, Meloidogyne incognita; details: for % Invasion: Fig 1B, 500 J2s incubated in 100 μM uNLP for 24 h, single tomato seedling, 24 h at 23°C, normalised to negative control = 100%, mean; for effect on host invasion (in words): 100 μM uNLP, 24 h, tomato cv. Moneymaker, relative to controls
Method: as §1
(§4) Tomato seeds were sterilised with 2.5% NaOCl for 15 minutes, washed 5 times in ddH20 and germinated on 0.5% Murashige and Skoog plates at 23°C. […] Invasion assays were performed by mixing 500 pre-treated M. incognita or G. pallida J2s with agar slurry and a single tomato seedling (2 days post germination) in a 6 well plate. Assays were left at 23°C for 24 hours in the case of M. incognita and at 18°C for 24 hours in the case of G. pallida under a 16 hour light and 8 hour darkness cycle. Seedlings were stained using acid fuschin [69] and the number of nematodes within the roots counted. At least five seedlings were used for M. incognita infections assays, with at least 15 seedlings used for G. pallida infections assays (due to increased variation).

G. pallida J2s [6] = experiment: Tomato invasion assay with uNLP pre-treated J2s; format: in vivo, Globodera pallida; details: Fig 2B; 500 J2s incubated in 100 μM uNLP for 24 h; single tomato seedling, 24 h at 18°C; normalised to negative control = 100%; mean
Method: as §1, §4

Sequence: AFDRLDVSPFDFDAMT [Mi-NLP-8a, predicted unamidated NLP of M. incognita, synthesised]
- CI score (M. incognita J2s [1]): 0.018
- % Thrusting (M. incognita J2s [2]): 126.10%

Sequence: GGARPFYGGGYMDGTW [Gp-NLP-21f, predicted unamidated NLP of G. pallida, synthesised]
- CI score (G. pallida J2s [3]): 0.1456

Sequence: GGARAFNGAEETLLNVANLA [Gp-NLP-21i, predicted unamidated NLP of G. pallida, synthesised]
- effect on chemosensation (in words) (G. pallida J2s [3]): inhibit chemosensation
- CI score (G. pallida J2s [3]): -0.1733
- effect on serotonergic-induced stylet thrusting (in words) (G. pallida J2s [4]): modulating stylet thrusting rates
- % Thrusting (G. pallida J2s [4]): 117.70%

Sequence: SSQFGGENSFARFAFA [Mi-NLP-18e, predicted unamidated NLP of M. incognita, synthesised]
- % Invasion (M. incognita J2s [5]): 46.49%

Sequence: AFDRLDNSFMLL [Mi-NLP-8d, predicted unamidated NLP of M. incognita, synthesised]
- % Invasion (M. incognita J2s [5]): 29.31%

Sequence: SGIQTFRDDYDEKQAGEL [Gp-NLP-21d, predicted unamidated NLP of G. pallida, synthesised]
- % Invasion (G. pallida J2s [6]): 2.01%

Sequence: AFDSFAGNGFTGFD [Mi-NLP-15f, predicted unamidated NLP of M. incognita, synthesised]
- effect on chemosensation (in words) (M. incognita J2s [1]): inhibit chemosensation
- CI score (M. incognita J2s [1]): -0.05
- effect on host invasion (in words) (M. incognita J2s [5]): does not impact on host invasion
- effect on serotonergic-induced stylet thrusting (in words) (M. incognita J2s [2]): reduces stylet thrusting rate
- % Thrusting (M. incognita J2s [2]): 75.18%

Sequence: GGARAFFGDADGPFNSASYWAP [Gp-NLP-21h, predicted unamidated NLP of G. pallida, synthesised]
- effect on chemosensation (in words) (G. pallida J2s [3]): inhibit chemosensation
- CI score (G. pallida J2s [3]): -0.01564
- effect on serotonergic-induced stylet thrusting (in words) (G. pallida J2s [4]): modulating stylet thrusting rates
- % Thrusting (G. pallida J2s [4]): 116.80%

Sequence: GGARAFAKLEE [Mi-NLP-9c, predicted unamidated NLP of M. incognita, synthesised]
- % Thrusting (M. incognita J2s [2]): 143.20%

Sequence: AGGRLFRMVDLPDGDDFVPEG [Gp-NLP-21e, predicted unamidated NLP of G. pallida, synthesised]
- CI score (G. pallida J2s [3]): -0.3804

Sequence: FAPRQFAFA [Mi-NLP-18a, predicted unamidated NLP of M. incognita, synthesised]
- effect on chemosensation (in words) (M. incognita J2s [1]): inhibited
- CI score (M. incognita J2s [1]): -0.1353
- effect on host invasion (in words) (M. incognita J2s [5]): inhibited
- % Invasion (M. incognita J2s [5]): 25.88%

Sequence: AFDLFTGPGFTGMD [Gp-NLP-15h, predicted unamidated NLP of G. pallida, synthesised]
- CI score (G. pallida J2s [3]): -0.06784

Sequence: GGARAFNFFAPPDE [Gp-NLP-21a, predicted unamidated NLP of G. pallida, synthesised]
- % Invasion (G. pallida J2s [6]): 178.90%

Sequence: ALDLMEGDGFGGGFD [Mi-NLP-14b, predicted unamidated NLP of M. incognita, synthesised]
- CI score (M. incognita J2s [1]): -0.1155

Sequence: AFDSFGTPGFTGFD [Mi-NLP-15a, predicted unamidated NLP of M. incognita, synthesised]
- effect on chemosensation (in words) (M. incognita J2s [1]): inhibit chemosensation
- CI score (M. incognita J2s [1]): -0.01067

Sequence: AAENFDENNDIN [Mi-NLP-18d, predicted unamidated NLP of M. incognita, synthesised]
- effect on chemosensation (in words) (M. incognita J2s [1]): no negative impact on J2 chemosensory ability
- effect on host invasion (in words) (M. incognita J2s [5]): reduce host invasion rates
- % Invasion (M. incognita J2s [5]): 34.21%
- effect on serotonergic-induced stylet thrusting (in words) (M. incognita J2s [2]): agonise serotonergic stylet thrusting
- % Thrusting (M. incognita J2s [2]): 147.70%

Sequence: SFDSFVGKGFTGMD [Mi-NLP-15c, predicted unamidated NLP of M. incognita, synthesised]
- effect on chemosensation (in words) (M. incognita J2s [1]): inhibit chemosensation
- CI score (M. incognita J2s [1]): -0.359

Sequence: SSLASGRIGFRPA [Mi-NLP-2, predicted unamidated NLP of M. incognita, synthesised]
- % Thrusting (M. incognita J2s [2]): 164.40%

Sequence: SFGDYPFGSRTFAFA [Mi-NLP-18c, predicted unamidated NLP of M. incognita, synthesised]
- % Thrusting (M. incognita J2s [2]): 175.50%

Sequence: GGARPFYGFFGGGEGTW [Mi-NLP-9e, predicted unamidated NLP of M. incognita, synthesised]
- % Invasion (M. incognita J2s [5]): 48.68%

Sequence: ALDMMEGDDFIGL [Mi-NLP-14c, predicted unamidated NLP of M. incognita, synthesised]
- effect on chemosensation (in words) (M. incognita J2s [1]): no negative impact on J2 chemosensory ability
- effect on host invasion (in words) (M. incognita J2s [5]): reduce host invasion rates
- % Invasion (M. incognita J2s [5]): 20.96%
- effect on serotonergic-induced stylet thrusting (in words) (M. incognita J2s [2]): excitation; also recorded: agonise serotonergic stylet thrusting
- % Thrusting (M. incognita J2s [2]): 134.70%

Sequence: GGARTFLVGE [Mi-NLP-9b, predicted unamidated NLP of M. incognita, synthesised]
- effect on chemosensation (in words) (M. incognita J2s [1]): inhibit chemosensation
- CI score (M. incognita J2s [1]): -0.07417

Sequence: AGARAFQRPDFDDASYEL [Mi-NLP-9a, predicted unamidated NLP of M. incognita, synthesised]
- % Invasion (M. incognita J2s [5]): 45.59%

Sequence: ALDMLEGDDFIGMQ [Mi-NLP-14a, predicted unamidated NLP of M. incognita, synthesised]
- effect on host invasion (in words) (M. incognita J2s [5]): does inhibit host invasion
- % Invasion (M. incognita J2s [5]): 44.61%
- effect on serotonergic-induced stylet thrusting (in words) (M. incognita J2s [2]): inhibition; also recorded: reduces stylet thrusting rate
- % Thrusting (M. incognita J2s [2]): 61.60%

Sequence: SFDSLTGPGFTGLDT [Gp-NLP-15a, predicted unamidated NLP of G. pallida, synthesised]
- CI score (G. pallida J2s [3]): -0.1451

Sequence: ALDILESDDFGGF [Gp-NLP-14a, predicted unamidated NLP of G. pallida, synthesised]
- CI score (G. pallida J2s [3]): -0.3765

Sequence: AFDSFTGPGFTGMD [Gp-NLP-15g, predicted unamidated NLP of G. pallida, synthesised]
- CI score (G. pallida J2s [3]): -0.2208

Sequence: SFDSFTGSGFTGLD [Gp-NLP-15c, predicted unamidated NLP of G. pallida, synthesised]
- effect on chemosensation (in words) (G. pallida J2s [3]): inhibit chemosensation
- CI score (G. pallida J2s [3]): -0.227
- effect on serotonergic-induced stylet thrusting (in words) (G. pallida J2s [4]): modulating stylet thrusting rates
- % Thrusting (G. pallida J2s [4]): 56.07%

Sequence: FNDDELSSLPFNFEYFPSLDTH [Mi-NLP-8b, predicted unamidated NLP of M. incognita, synthesised]
- % Invasion (M. incognita J2s [5]): 61.38%

Sequence: SAFDSFVGRGFTGMD [Mi-NLP-15e, predicted unamidated NLP of M. incognita, synthesised]
- effect on chemosensation (in words) (M. incognita J2s [1]): inhibit chemosensation
- CI score (M. incognita J2s [1]): -0.01767
- % Invasion (M. incognita J2s [5]): 38.71%

Sequence: ALDILDGDDFTGFS [Gp-NLP-14e, predicted unamidated NLP of G. pallida, synthesised]
- CI score (G. pallida J2s [3]): -0.0641

Sequence: GMRNFAFA [Mi-NLP-18b, predicted unamidated NLP of M. incognita, synthesised]
- effect on chemosensation (in words) (M. incognita J2s [1]): no negative impact on J2 chemosensory ability
- effect on host invasion (in words) (M. incognita J2s [5]): reduce host invasion rates
- % Invasion (M. incognita J2s [5]): 47.81%
- effect on serotonergic-induced stylet thrusting (in words) (M. incognita J2s [2]): agonise serotonergic stylet thrusting
- % Thrusting (M. incognita J2s [2]): 146.60%
